Measured values: US20100310591A1 (priority 2009, published 2010)
Values joined by “and” are separate entries in the source; they are usually repeats but may differ in a detail not shown here. Equal entries are not always repeated.

Key:
[1] = system: CD4+ T cells (CD8+ depleted PBMC of rHA-responsive donors); type: cell-based, human
[2] = system: CD4+ T cells (CD8+ depleted donor PBMC); type: cell-based, human
MHC class II molecules = settings: cited from earlier work
[3] = system: TPc9.1 T hybridoma with CH27 antigen presenting cells; test: T hybridoma response assay (APC + T hybridoma, HT-2 [3H]TdR uptake readout); type: cell-based, murine
Description: Biological Activities of Hybrid Peptides [00103) The biological activities of the series of peptides listed in Table I were determined with the T hybridoma response assay. A T cell hybridoma which is specific to the hornworm moth cytochrome C epitope IAYLKQATAK (SEQ ID NO: 8) was stimulated with that antigenic peptide or with members of the series of hybrids of the antigenic peptide and the core Ii-Key sequence listed in Table I. The hybrids were joined with spacers of various lengths. The spacers contained either amino acids in the natural sequence of the Ii protein, or methylene (—CH2—) groups of 5-amino-n-valeric acid (ava; 5-aminopentanoic acid). Cultures of an antigen presenting cell and T cell hybridoma were incubated with serial 1:4 dilutions of the antigenic peptide, from 3 μM. Response was determined by measuring tritiated thymidine uptake by an HT-2 culture to which supernatants of the antigenic stimulation culture (24 hr stimulation period) had been transferred (see, Table 2). The endpoint for half maximal response to Hybrid 1, the antigenic peptide, was about 20 nM. The endpoint for half maximal stimulation with Hybrids 5 and 2 was about 50 pM.
For this assay the following components were added at the same time of the primary culture: (a) The hybrid peptide containing the antigenic epitope (Table I); (b) mitomycin C-treated, MHC class II-positive antigen presenting cells (APC) with the MHC class II allele required for binding of the specific antigenic peptide and its presentation to the antigenic peptide-specific T cell hybridoma; (c) MHC class II allele-restricted T cell hybridoma specific for the antigenic peptide and the MHC class II allele restricting its presentation. At the end of the incubation of this primary culture, an aliquot of its supernatant was transferred into a second culture well for incubation with an interleukin-dependent lymphoblastoid cell line. The degree of stimulation of that second indicator cell by the interleukins which had been released from the activated T cell hybridoma in the primary culture was measured by quantitating tritiated thymidine deoxyribose {[^3H]TdR} uptake into the DNA of the HT-2 indicator cells of that second culture.
The hybrids between Ii-Key core sequence LRMK (SEQ ID NO: 3) and PGCC95-104, pigeon cytochrome C 95-104, IAYLKQATAK (SEQ ID NO: 8) are presented by E^k. The peptides were dissolved in phosphate-buffered saline (PBS; 0.01 M sodium phosphate buffer, pH 7.2, 0.1 M NaCl). The solutions were sterilized by filtration. The TPc9.1 T hybridoma is specific for pigeon cytochrome C 81-104 peptide presented on the murine class II MHC allele E^k. The CH27 B cell lymphoma line which expresses H-2^k alleles was used as the antigen presenting cell.
Antigenic peptide-specific T cell activation was measured by the following procedure. Mitomycin C-treated CH27 cells (A^kE^k) APC were generated by incubating 5.×10^6 cells/mL for 20 min at 37° C. with 0.025 mg/mL of mitomycin C (Sigma) in Dulbecco's Modified Eagle's Medium (DMEM)/10 mM N-2 (hydroxyethylpiperazine-N′[2-ethanesulfonic acid] (HEPES), followed by two washes with four volumes of DMEM-5% fetal calf serum (FCS), 10 mM HEPES. T cell hybridomas were irradiated 2200 rads before each assay.
For the primary culture assay, 5×10^4 mitomycin C-treated APC, 5×10^4 T hybridoma cells and serial 1:4 dilutions from 3 uM of the peptides containing antigenic epitopes were cultured at pH 7.2-7.4, in complete DMEM-5% FCS, 10 mM HEPES, 1× nonessential amino acids (Sigma), 1 mM sodium pyruvate, 2 mM L-glutamine. 100 U/mL penicillin G, 100 μg/mL streptomycin sulfate, 5×10^−5 M 2-mercaptoethanol (2-ME). Wells containing only T hybridoma cells (T)+APC were included to monitor for background T cell activation; and wells containing T+APC+antigenic peptide were included to monitor for non-specific T hybridoma activation by each AE101 series peptide. […]

KMEDGFLDVWTYNAELL [BEI 73]
in vitro CD4 response, fold above background [1]: 15 fold above background

LRNSPQRERRRKKRGLF [BEI 57]
in vitro CD4 response, fold above background [1]: 4.1 fold above background

LVPRIATRSKVNGQSGR [BEI 39]
in vitro CD4 response, fold above background [1]: 3.8 fold above background

Ac-LRMK-ava-TIKRSYNNTNQED—NH2 [Ii-Key peptide No. 177]
frequency of recognition (responding vaccine recipients / tested) [2]: 10/35 | in vitro IFN-γ response (in words) [2]: strongest in vitro IFN-γ responses

MEKNVTVTHAQDUKEKT [BEI 7]
in vitro CD4 response, fold above background [1]: 12 fold above background

VTHAQDILEKTHNGKL [BEI 8]
in vitro CD4 response, fold above background [1]: 3.4 fold above background

KRGLFGAIAGFIEGGWQ [BEI 59]
recognition frequency among donors [1]: 21%

YQNPTTYISVGTSTLNQ [BEI 36]
recognition frequency among donors [1]: 21%

STLNQRLVPRIATRSKV [BEI 38]
in vitro CD4 response, fold above background [1]: 13 fold above background

NHFEKIQIIPKSSWSSH [BEI 22]
in vitro CD4 response, fold above background [1]: 4.6 fold above background

FFRNVVWLIKKNSTYPT [BEI 28]
in vitro CD4 response, fold above background [1]: 3.7 fold above background

Ac-LRMK-ava-KKNSAYPTIKRSY—NH2 [Ii-Key peptide No. 170]
frequency of recognition (responding vaccine recipients / tested) [2]: 9/35 | in vitro IFN-γ response (in words) [2]: strongest in vitro IFN-γ responses

IGECPKYVKSNRLVLAT [BEI 54]
in vitro CD4 response, fold above background [1]: 3.9 fold above background and 3.8 fold above background

Ac-LRMK-ava-HLLSRINHFEKIQ—NH2 [Ii-Key peptide No. 121]
frequency of recognition (responding vaccine recipients / tested) [2]: 9/35 | in vitro IFN-γ response (in words) [2]: strongest in vitro IFN-γ responses

LRMK (SEQ ID NO: 3)
share of maximal activity of any member of the series of Ii-key peptides (MHC class II molecules): at least 50%

YQGKSSFFRNVVWLIKK [BEI 27]
in vitro CD4 response, fold above background [1]: 12 fold above background

LRMKLPKSAKPIAYLKQATAK [Hybrid 5]
immunological response to the antigenic epitope (T cell proliferative response) ([3]; Conc. 0.01 nM): 14.3 thousands of counts per minute | immunological response to the antigenic epitope (T cell proliferative response) ([3]; Conc. 0.05 nM): 21.3 thousands of counts per minute | immunological response to the antigenic epitope (T cell proliferative response) ([3]; Conc. 0.18 nM): 36.7 thousands of counts per minute | immunological response to the antigenic epitope (T cell proliferative response) ([3]; Conc. 0.73 nM): 30.1 thousands of counts per minute | immunological response to the antigenic epitope (T cell proliferative response) ([3]; Conc. 3 nM): 31.4 thousands of counts per minute | immunological response to the antigenic epitope (T cell proliferative response) ([3]; Conc. 12 nM): 44.6 thousands of counts per minute | immunological response to the antigenic epitope (T cell proliferative response) ([3]; Conc. 47 nM): 26.2 thousands of counts per minute | immunological response to the antigenic epitope (T cell proliferative response) ([3]; Conc. 188 nM): 29.1 thousands of counts per minute | immunological response to the antigenic epitope (T cell proliferative response) ([3]; Conc. 750 nM): 27.5 thousands of counts per minute | immunological response to the antigenic epitope (T cell proliferative response) ([3]; Conc. 3000 nM): 27.3 thousands of counts per minute | EC50 ([3]; serial 1:4 dilutions from 3 μM, 24 hr stimulation, read-out: endpoint for half maximal stimulation): ~0.05 nM

PLILRDCSVAGWLLGNP [BEI 12]
in vitro CD4 response, fold above background [1]: 3.3 fold above background

WLIKKNSTYPTILRSYN [BEI 29]
in vitro CD4 response, fold above background [1]: 3.6 fold above background

SNVKNLYDKVRLQLRDN [BEI 78]
in vitro CD4 response, fold above background [1]: 3.3 fold above background
